From US8283361B2 (AstraZeneca AB, priority 2008, dated 2012)

These compounds were tested against S. aureus GyrB ATPase (Staphylococcus aureus, UniProt P0A0K8) (assay: biochemical). Details: compound at 1 μM; one value per test if tested more than once; 1 µM.
Protocol: S. aureus GyrB ATPase Inhibition Activity: Compounds may be tested for inhibition of S. aureus GyrB ATPase activity using an ammonium molybdate/malachite green-based phosphate detection assay (Lanzetta, P. A., L. J. Alvarez, P. S. Reinach, and O. A. Candia, 1979, 100: 95-97). Assays can be performed in multiwell plates in 30 μl reactions containing: 50 mM Hepes buffer pH 7.5, 75 mM ammonium acetate, 8.0 mM magnesium chloride, 0.5 mM ethylenediaminetetraacetic acid, 5% glycerol, 1.0 mM 1,4-Dithio-DL-threitol, 200 nM bovine serum albumin, 1.0 μg/m1 sheared salmon sperm DNA, 250 pM E. coli GyrA, 250 pM S. aureus GyrB, 250 μM ATP, and compound in dimethylsulfoxide. Reactions can be quenched with 30 μl of ammonium molybdate/malachite green detection reagent containing 1.2 mM malachite green hydrochloride, 8.5 mM ammonium molybdate tetrahydrate, and 1 M hydrochloric acid. […] An IC50 measurement of compound potency for each compound can be determined from reactions performed in the presence of 10 different compound concentrations.

S. aureus GyrB ATPase, sequence (P0A0K8 whole entry): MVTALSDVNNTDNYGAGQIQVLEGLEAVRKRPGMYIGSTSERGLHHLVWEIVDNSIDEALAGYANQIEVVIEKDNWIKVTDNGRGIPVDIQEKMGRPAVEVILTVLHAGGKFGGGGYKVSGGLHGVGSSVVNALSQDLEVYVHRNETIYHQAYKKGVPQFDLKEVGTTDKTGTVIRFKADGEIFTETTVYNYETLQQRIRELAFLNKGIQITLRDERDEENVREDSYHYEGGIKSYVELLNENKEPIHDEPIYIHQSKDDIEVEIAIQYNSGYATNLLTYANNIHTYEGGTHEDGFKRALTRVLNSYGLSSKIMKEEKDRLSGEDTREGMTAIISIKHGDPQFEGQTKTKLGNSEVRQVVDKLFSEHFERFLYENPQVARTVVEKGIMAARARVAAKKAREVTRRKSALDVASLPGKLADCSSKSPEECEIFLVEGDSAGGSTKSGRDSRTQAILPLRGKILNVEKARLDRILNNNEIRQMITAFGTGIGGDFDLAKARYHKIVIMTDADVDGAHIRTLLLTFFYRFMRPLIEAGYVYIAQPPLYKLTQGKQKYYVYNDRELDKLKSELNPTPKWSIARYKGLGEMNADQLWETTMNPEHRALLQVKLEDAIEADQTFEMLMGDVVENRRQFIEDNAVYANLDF
S. aureus GyrB ATPase, sequence (P0AES4 whole entry, further chain): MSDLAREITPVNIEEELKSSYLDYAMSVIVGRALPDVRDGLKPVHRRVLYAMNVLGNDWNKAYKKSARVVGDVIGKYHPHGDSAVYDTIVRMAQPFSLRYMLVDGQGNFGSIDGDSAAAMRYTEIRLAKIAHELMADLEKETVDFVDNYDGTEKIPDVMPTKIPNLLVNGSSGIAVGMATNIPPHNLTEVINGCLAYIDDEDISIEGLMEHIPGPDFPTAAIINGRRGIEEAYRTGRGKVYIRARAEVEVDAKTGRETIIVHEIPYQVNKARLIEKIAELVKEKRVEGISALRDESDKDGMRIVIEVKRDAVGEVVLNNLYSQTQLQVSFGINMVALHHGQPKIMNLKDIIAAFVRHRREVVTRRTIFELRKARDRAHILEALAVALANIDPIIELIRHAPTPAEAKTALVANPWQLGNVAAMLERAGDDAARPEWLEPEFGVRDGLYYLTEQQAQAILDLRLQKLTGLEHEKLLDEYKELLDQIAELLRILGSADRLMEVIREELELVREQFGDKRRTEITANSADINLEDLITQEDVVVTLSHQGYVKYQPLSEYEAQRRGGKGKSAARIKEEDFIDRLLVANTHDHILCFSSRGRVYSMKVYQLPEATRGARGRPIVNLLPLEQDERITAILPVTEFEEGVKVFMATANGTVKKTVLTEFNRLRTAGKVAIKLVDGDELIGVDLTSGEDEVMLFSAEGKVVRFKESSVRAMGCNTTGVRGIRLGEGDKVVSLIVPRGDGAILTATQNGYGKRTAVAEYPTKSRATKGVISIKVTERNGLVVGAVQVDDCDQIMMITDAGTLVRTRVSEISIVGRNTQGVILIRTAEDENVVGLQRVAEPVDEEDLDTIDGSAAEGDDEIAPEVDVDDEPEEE

CCNC(=O)Nc1cc(-c2nc(C(F)(F)F)cs2)c(-c2ccc3c(=O)c(C(=O)NC)cn(CC)c3c2)cn1 [Example 33, 1-ethyl-7-(6-(3-ethylureido)-4-(4-(trifluoromethyl)thiazol-2-yl)pyridin-3-yl)-N-methyl-4-oxo-1,4-dihydroquinoline-3-carboxamide] was tested, and the “% Inhibition of S. aureus GyrB ATPase” value was 109%.

Same assay, conditions: compound at 1 μM; one value per test if tested more than once; read-out: % Inhibition of S. aureus GyrB ATPase

CCNC(=O)Nc1cc(-c2nc(C(F)(F)F)cs2)c(-c2ccc3c(=O)c(C(=O)O)cn(CCC(C)C)c3c2)cn1 [Example 25, 7-{6-[(ethylcarbamoyl)amino]-4-[4-(trifluoromethyl)-1,3-thiazol-2-yl]pyridin-3-yl}-1-(3-methylbutyl)-4-oxo-1,4-dihydroquinoline-3-carboxylic acid] and CCCn1cc(C(=O)O)c(=O)c2ccc(-c3cnc(NC(=O)NCC)cc3-c3nc(C(F)(F)F)cs3)cc21 [Example 27, 7-{6-[(ethylcarbamoyl)amino]-4-[4-(trifluoromethyl)-1,3-thiazol-2-yl]pyridin-3-yl}-4-oxo-1-propyl-1,4-dihydroquinoline-3-carboxylic acid] are the same in inhibition at 1 µM: 99% for the first, 99% for the second.

First: CCNC(=O)Nc1cc(-c2nc(C(F)(F)F)cs2)c(-c2ccc3c(=O)c(C(=O)O)cn(Cc4ccccc4)c3c2)cn1 [Example 28, 1-benzyl-7-{6-[(ethylcarbamoyl)amino]-4-[4-(trifluoromethyl)-1,3-thiazol-2-yl]pyridin-3-yl}-4-oxo-1,4-dihydroquinoline-3-carboxylic acid]
Second: CCNC(=O)Nc1cc(-c2nc(C(F)(F)F)cs2)c(-c2ccc3c(c2)c(=O)c(C(=O)O)cn3[C@H](CO)Cc2ccccc2)cn1 [Example 74, (S)-6-(6-(3-ethylureido)-4-(4-(trifluoromethyl)thiazol-2-yl)pyridin-3-yl)-1-(1-hydroxy-3-phenylpropan-2-yl)-4-oxo-1,4-dihydroquinoline-3-carboxylic acid]
The inhibition at 1 µM of the first is lower: 97% for the first, 103% for the second.

Compared with CCNC(=O)Nc1cc(-c2nc(C(F)(F)F)cs2)c(-c2ccc3c(=O)c(C(=O)O)cn(CCO)c3c2)cn1 [Example 30, 7-{6-[(ethylcarbamoyl)amino]-4-[4-(trifluoromethyl)-1,3-thiazol-2-yl]pyridin-3-yl}-1-(2-hydroxyethyl)-4-oxo-1,4-dihydroquinoline-3-carboxylic acid], CCNC(=O)Nc1cc(-c2nc(C(F)(F)F)cs2)c(-c2ccc3c(=O)c(C(=O)O)cn(CC4CC4)c3c2)cn1 [Example 32, 1-(cyclopropylmethyl)-7-{6-[(ethylcarbamoyl)amino]-4-[4-(trifluoromethyl)-1,3-thiazol-2-yl]pyridin-3-yl}-4-oxo-1,4-dihydroquinoline-3-carboxylic acid] is higher in inhibition at 1 µM: 95% for the first, 98% for the second.

First: CCNC(=O)Nc1cc(-c2nc(C(F)(F)F)cs2)c(-c2ccc3c(=O)c(C(=O)NC)cn(CC)c3c2)cn1 [Example 33, 1-ethyl-7-(6-(3-ethylureido)-4-(4-(trifluoromethyl)thiazol-2-yl)pyridin-3-yl)-N-methyl-4-oxo-1,4-dihydroquinoline-3-carboxamide]
Second: CCNC(=O)Nc1cc(-c2nc(C(F)(F)F)cs2)c(-c2ccc3c(c2)c(=O)c(C(=O)NC)cn3CC)cn1 [Example 34, 1-ethyl-6-(6-(3-ethylureido)-4-(4-(trifluoromethyl)thiazol-2-yl)pyridin-3-yl)-N-methyl-4-oxo-1,4-dihydroquinoline-3-carboxamide]
The inhibition at 1 µM of the first is lower: 97% for the first, 100% for the second.

Compared with CCNC(=O)Nc1cc(-c2nc(CC)cs2)c(-c2ccc3c(=O)c(C(=O)NC)cn(CC)c3c2)cn1 [Example 36, 1-ethyl-7-(4-(4-ethylthiazol-2-yl)-6-(3-ethylureido)pyridin-3-yl)-N-methyl-4-oxo-1,4-dihydroquinoline-3-carboxamide], CCNC(=O)Nc1cc(-c2nc(CC)cs2)c(-c2ccc3c(c2)c(=O)c(C(=O)NC)cn3CC)cn1 [Example 37, 1-ethyl-6-(4-(4-ethylthiazol-2-yl)-6-(3-ethylureido)pyridin-3-yl)-N-methyl-4-oxo-1,4-dihydroquinoline-3-carboxamide] is higher in inhibition at 1 µM: 64% for the first, 96% for the second.

Going from CCNC(=O)Nc1cc(-c2nc(CC)cs2)c(-c2cc3c4c(c2)c(=O)c(C(=O)NC)cn4CCO3)cn1 [Example 38, 9-(4-(4-ethylthiazol-2-yl)-6-(3-ethylureido)pyridin-3-yl)-N-methyl-7-oxo-3,7-dihydro-2H-[1,4]oxazino[2,3,4-ij]quinoline-6-carboxamide] to CCNC(=O)Nc1cc(-c2nc(-c3ccccc3)cs2)c(-c2cc3c4c(c2)c(=O)c(C(=O)NC)cn4CCO3)cn1 [Example 41, 9-(6-(3-ethylureido)-4-(4-phenylthiazol-2-yl)pyridin-3-yl)-N-methyl-7-oxo-3,7-dihydro-2H-[1,4]oxazino[2,3,4-ij]quinoline-6-carboxamide], the inhibition at 1 µM rises from 99% to 105%.

Going from CCNC(=O)Nc1cc(-c2nc(-c3ccccc3)cs2)c(-c2ccc3c(=O)c(C(=O)NC)cn(CC)c3c2)cn1 [Example 39, 1-ethyl-7-(6-(3-ethylureido)-4-(4-phenylthiazol-2-yl)pyridin-3-yl)-N-methyl-4-oxo-1,4-dihydroquinoline-3-carboxamide] to CCNC(=O)Nc1cc(-c2nc(-c3ccccc3)cs2)c(-c2ccc3c(=O)c(C(=O)OCC)cn(CC)c3c2)cn1 [Example 44, ethyl 1-ethyl-7-(6-(3-ethylureido)-4-(4-phenylthiazol-2-yl)pyridin-3-yl)-4-oxo-1,4-dihydroquinoline-3-carboxylate], the inhibition at 1 µM falls from 101% to 98%.

Compared with CCNC(=O)Nc1cc(-c2nc(C(F)(F)F)cs2)c(-c2ccc3c(=O)c(C(=O)OCC)cn(CC)c3c2)cn1 [Example 42, Ethyl 1-ethyl-7-(6-(3-ethylureido)-4-(4-trifluoromethylthiazol-2-yl)pyridin-3-yl)-4-oxo-1,4-dihydroquinoline-3-carboxylate], CCNC(=O)Nc1cc(-c2nc(C(F)(F)F)cs2)c(-c2cc3c4c(c2)c(=O)c(C(=O)OCC)cn4CCO3)cn1 [Example 48, ethyl 9-(6-(3-ethylureido)-4-(4-trifluoromethylthiazol-2-yl)pyridin-3-yl)-7-oxo-3,7-dihydro-2H-[1,4]oxazino[2,3,4-ij]quinoline-6-carboxylate] is lower in inhibition at 1 µM: 113% for the first, 106% for the second.

Going from CCNC(=O)Nc1cc(-c2nc(C(F)(F)F)cs2)c(-c2ccc3c(c2)c(=O)c(C(=O)O)cn3[C@@H](C)CO)cn1 [Example 71, (S)-6-(6-(3-ethylureido)-4-(4-(trifluoromethyl)thiazol-2-yl)pyridin-3-yl)-1-(1-hydroxypropan-2-yl)-4-oxo-1,4-dihydroquinoline-3-carboxylic acid] to CCNC(=O)Nc1cc(-c2nc(C(F)(F)F)cs2)c(-c2ccc3c(c2)c(=O)c(C(=O)O)cn3[C@H](C)CO)cn1 [Example 72, (R)-6-(6-(3-ethylureido)-4-(4-(trifluoromethyl)thiazol-2-yl)pyridin-3-yl)-1-(1-hydroxypropan-2-yl)-4-oxo-1,4-dihydroquinoline-3-carboxylic acid], the inhibition at 1 µM falls from 107% to 103%.

Compared with CCNC(=O)Nc1cc(-c2nc(C(F)(F)F)cs2)c(-c2ccc3c(c2)c(=O)c(C(=O)O)cn3[C@H](CO)[C@@H](C)O)cn1 [Example 73, 1-((2R,3R)-1,3-dihydroxybutan-2-yl)-6-(6-(3-ethylureido)-4-(4-(trifluoromethyl)thiazol-2-yl)pyridin-3-yl)-4-oxo-1,4-dihydroquinoline-3-carboxylic acid], CCNC(=O)Nc1cc(-c2nc(C(F)(F)F)cs2)c(-c2ccc3c(c2)c(=O)c(C(=O)O)cn3C(CO)CO)cn1 [Example 75, 1-(1,3-dihydroxypropan-2-yl)-6-(6-(3-ethylureido)-4-(4-(trifluoromethyl)thiazol-2-yl)pyridin-3-yl)-4-oxo-1,4-dihydroquinoline-3-carboxylic acid] is lower in inhibition at 1 µM: 105% for the first, 102% for the second.

First: CCNC(=O)Nc1cc(-c2nc(C(F)(F)F)cs2)c(-c2ccc3c(c2)c(=O)c(C(=O)O)cn3[C@@H](CO)C(C)(C)C)cn1 [Example 76, (R)-6-(6-(3-ethylureido)-4-(4-(trifluoromethyl)thiazol-2-yl)pyridin-3-yl)-1-(1-hydroxy-3,3-dimethylbutan-2-yl)-4-oxo-1,4-dihydroquinoline-3-carboxylic acid]
Second: CCNC(=O)Nc1cc(-c2nc(C(F)(F)F)cs2)c(-c2ccc3c(c2)c(=O)c(C(=O)O)cn3[C@H](CC)CO)cn1 [Example 79, (R)-6-(6-(3-ethylureido)-4-(4-(trifluoromethyl)thiazol-2-yl)pyridin-3-yl)-1-(1-hydroxybutan-2-yl)-4-oxo-1,4-dihydroquinoline-3-carboxylic acid]
The inhibition at 1 µM of the first is higher: 110% for the first, 97% for the second.

First: CCNC(=O)Nc1cc(-c2nc(C(F)(F)F)cs2)c(-c2ccc3c(c2)c(=O)c(C(=O)O)cn3[C@@H](CO)Cc2ccc(O)cc2)cn1 [Example 77, (R)-6-(6-(3-ethylureido)-4-(4-(trifluoromethyl)thiazol-2-yl)pyridin-3-yl)-1-(1-hydroxy-3-(4-hydroxyphenyl)propan-2-yl)-4-oxo-1,4-dihydroquinoline-3-carboxylic acid]
Second: CCNC(=O)Nc1cc(-c2nc(C(F)(F)F)cs2)c(-c2ccc3c(c2)c(=O)c(C(=O)O)cn3[C@H](CO)C2CCCCC2)cn1 [Example 78, (S)-1-(1-cyclohexyl-2-hydroxyethyl)-6-(6-(3-ethylureido)-4-(4-(trifluoromethyl)thiazol-2-yl)pyridin-3-yl)-4-oxo-1,4-dihydroquinoline-3-carboxylic acid]
The inhibition at 1 µM of the first is higher: 110% for the first, 102% for the second.

CCNC(=O)Nc1cc(-c2nc(C(F)(F)F)cs2)c(-c2ccc3c(c2)c(=O)c(C(=O)O)cn3C(CO)C2CCOCC2)cn1 (centres unmarked) [Example 80, 6-(6-(3-ethylureido)-4-(4-(trifluoromethyl)thiazol-2-yl)pyridin-3-yl)-1-(-hydroxy-1-(tetrahydro-H-pyran-4-yl)ethyl)-4-oxo-1,4-dihydroquinoline-3-carboxylic acid] was tested, and the inhibition at 1 µM was 96%.
